Values joined by “and” are separate entries in the source; they are usually repeats but may differ in a detail not shown here. Identical values can stand only once.
Legend:
Settings in all cases: incubation time: 72 h
[1] = test system: CAL-85-1; experiment: normalised viability (% of control), CellTiter-Blue; higher = more viable cells (about 100 = DMSO control)
Experimental: (§1)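 DSRT, CellTiter-Blue viability, 72 h incubation. Signal is normalised to DMSO and benzethonium chloride controls. Value is the normalised response at dose 7.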

[2] = test system: CAL-51; experiment: as above
Experimental: as §1

[3] = test system: CAL-148; experiment: as above
Experimental: as §1

[4] = test system: HDQ-P1; experiment: as above
Experimental: as §1

[5] = test system: MDA-MB-453; experiment: as above
Experimental: as §1

[6] = test system: DU-4475; experiment: as above
Experimental: as §1

[7] = test system: CAL-120; experiment: drug sensitivity score (DSS), CellTox Green (DSS (AUC-based score)); higher = stronger drug effect (viability inhibition or cytotoxicity); extreme values may be limits of the assay
Procedure, shortened: (§2)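 Breast cancer cells were seeded into 384-well plates containing compound at 5 concentrations in 10-fold steps over a compound-specific 10,000-fold range and incubated 72 h. After CellTox Green and CellTiter-Glo readings, each plate was normalised to 0.1 % DMSO and a positive kill control. The drug sensitivity score rests on the area under the fitted dose-response curve.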

[8] = test system: MDA-MB-231; experiment: as above
Procedure, shortened: as §2

[9] = test system: CAL-85-1; experiment: as above
Procedure, shortened: as §2

[10] = test system: HCC1143; experiment: as above
Procedure, shortened: as §2

[11] = test system: CAL-148; experiment: as above
Procedure, shortened: as §2

[12] = test system: MDA-MB-453; experiment: as above
Procedure, shortened: as §2

NC(=O)NO [Hydroxyurea] (10000 nM)
normalised viability [1]: 102% | normalised viability [2]: 104% | normalised viability [3]: 112% | normalised viability [4]: 103% | normalised viability [5]: 108% | normalised viability [6]: 101%

COc1cc2c(cc1-c1c(C)noc1C)ncc1[nH]c(=O)n([C@H](C)c3ccccn3)c12 [I-BET151]
drug sensitivity score [7]: 0 | drug sensitivity score [8]: 1.07 | drug sensitivity score [9]: 5.11 | drug sensitivity score [10]: 0 | drug sensitivity score [11]: 0 | drug sensitivity score [12]: 0

CC(C)n1nc(-c2ccc3oc(N)nc3c2)c2c(N)ncnc21 [INK128]
drug sensitivity score [7]: 0 | drug sensitivity score [8]: 0 | drug sensitivity score [9]: 0 | drug sensitivity score [10]: 0 | drug sensitivity score [11]: 8.35 | drug sensitivity score [12]: 0

O=NN(CCCl)C(=O)NC1CCCCC1 [Lomustine] (1000 nM)
normalised viability [1]: 93.3% | normalised viability [2]: 110% | normalised viability [3]: 92.3% | normalised viability [4]: 97.6% | normalised viability [5]: 94.4% | normalised viability [6]: 90.6%

O=C(O)CC[C@H]1CC[C@@](c2cc(F)ccc2F)(S(=O)(=O)c2ccc(Cl)cc2)CC1 [MK-0752] (100 nM)
normalised viability [1]: 102% | normalised viability [2]: 101% | normalised viability [3]: 122% | normalised viability [4]: 110% | normalised viability [5]: 109% | normalised viability [6]: 122%

NC1(c2ccc(-c3nc4ccn5c(=O)[nH]nc5c4cc3-c3ccccc3)cc2)CCC1 [MK-2206] (100 nM)
normalised viability [1]: 86.7% | normalised viability [2]: 100% | normalised viability [3]: 91.5% | normalised viability [4]: 82.9% | normalised viability [5]: 84.4% | normalised viability [6]: 92.7%

NC(=O)c1cccc2cn(-c3ccc([C@@H]4CCCNC4)cc3)nc12 [MK-4827] (1000 nM)
normalised viability [1]: 93% | normalised viability [2]: 90.8% | normalised viability [3]: 87.4% | normalised viability [4]: 91.8% | normalised viability [5]: 93.3% | normalised viability [6]: 78.9%

O=C(c1cc(Cc2n[nH]c(=O)c3ccccc23)ccc1F)N1CCN(C(=O)C2CC2)CC1 [Olaparib] (1000 nM)
normalised viability [1]: 85.8% | normalised viability [2]: 88.6% | normalised viability [3]: 84.3% | normalised viability [4]: 104% | normalised viability [5]: 79.4% | normalised viability [6]: 81.1%

CO[C@H](C(=O)[C@@H](O)[C@@H](C)O)[C@@H]1Cc2cc3cc(O[C@H]4C[C@@H](O[C@@H]5C[C@@H](O)[C@H](O)[C@@H](C)O5)[C@H](O)[C@@H](C)O4)c(C)c(O)c3c(O)c2C(=O)[C@H]1O[C@H]1C[C@@H](O[C@@H]2C[C@@H](O)[C@@H](O[C@@H]3C[C@](C)(O)[C@H](O)[C@@H](C)O3)[C@@H](C)O2)[C@H](O)[C@@H](C)O1 [Plicamycin] (1000 nM)
normalised viability [1]: 6.52% and 5.6% | normalised viability [2]: 4.92% and 5.48% | normalised viability [3]: 2.42% and 2.71% | normalised viability [4]: 32.4% and 21.1% | normalised viability [5]: 8.78% and 7.08% | normalised viability [6]: 0.92% and -0.07%

C[C@]12C=CC(=O)C=C1CC[C@@H]1[C@@H]2C(=O)C[C@@]2(C)[C@H]1CC[C@]2(O)C(=O)CO [Prednisone] (1000 nM)
normalised viability [1]: 94.2% | normalised viability [2]: 93.1% | normalised viability [3]: 101% | normalised viability [4]: 122% | normalised viability [5]: 96.7% | normalised viability [6]: 96.3%

CO[C@H]1C[C@@H]2CC[C@@H](C)[C@@](O)(O2)C(=O)C(=O)N2CCCC[C@H]2C(=O)O[C@H]([C@H](C)C[C@@H]2CC[C@@H](O)[C@H](OC)C2)CC(=O)[C@H](C)/C=C(\C)[C@@H](O)[C@@H](OC)C(=O)[C@H](C)C[C@H](C)/C=C/C=C/C=C/1C [Sirolimus] (100 nM)
normalised viability [1]: 52.6% | normalised viability [2]: 29.2% | normalised viability [3]: 48.1% | normalised viability [4]: 70.6% | normalised viability [5]: 27.9% | normalised viability [6]: 56.5%

CN1CCN(c2nc(C3=C(c4c[nH]c5ccccc45)C(=O)NC3=O)c3ccccc3n2)CC1 [Sotrastaurin] (1000 nM)
normalised viability [1]: 124% | normalised viability [2]: 74.3% | normalised viability [3]: 111% | normalised viability [4]: 100% | normalised viability [5]: 89.7% | normalised viability [6]: 95.8%

CC/C(=C(\c1ccccc1)c1ccc(OCCN(C)C)cc1)c1ccccc1 [Tamoxifen] (1000 nM)
normalised viability [1]: 101% | normalised viability [2]: 78.4% | normalised viability [3]: 124% | normalised viability [4]: 98.7% | normalised viability [5]: 105% | normalised viability [6]: 112%

COc1cc2c(N3CCN(C(=O)Nc4ccc(OC(C)C)cc4)CC3)ncnc2cc1OCCCN1CCCCC1 [Tandutinib] (100 nM)
normalised viability [1]: 100% | normalised viability [2]: 107% | normalised viability [3]: 101% | normalised viability [4]: 112% | normalised viability [5]: 97.6% | normalised viability [6]: 117%

C[C@@H](C(=O)O)c1ccc(-c2ccccc2)c(F)c1 [Tarenflurbil] (1000 nM)
normalised viability [1]: 90% | normalised viability [2]: 109% | normalised viability [3]: 92.5% | normalised viability [4]: 83.2% | normalised viability [5]: 87.7% | normalised viability [6]: 108%

Cn1nnc2c(C(N)=O)ncn2c1=O [Temozolomide] (1000 nM)
normalised viability [1]: 104% | normalised viability [2]: 89.7% | normalised viability [3]: 113% | normalised viability [4]: 100% | normalised viability [5]: 93.6% | normalised viability [6]: 101%

CN1CCc2c(c3ccccc3n2Cc2ccc(C(=O)NO)cc2)C1 [Tubastatin A]
drug sensitivity score [7]: 0 | drug sensitivity score [8]: 2.06 | drug sensitivity score [9]: 0 | drug sensitivity score [10]: 10 | drug sensitivity score [11]: 0 | drug sensitivity score [12]: 0

Source: the supplement of paper PMC4862054
